Results taken from PMC6601062, “Identification of duck liver-expressed antimicrobial peptide 2 and characterization of its bactericidal activity” (Asian-Australasian Journal of Animal Sciences, 2018).
Bridge positions count the residues as written; N and C are the ends. Peptide text beside a SMILES is read from it.

Columns and labels:
[1] = tested on: Staphylococcus aureus; assay: Killing kinetics (colony counting); type: cell-based; settings: 200 μg/mL peptide, 37°C, PBS pH 7.4; sampled at 0, 30, 60, 90, 180 min
Description: (§1) Bacteria were cultured overnight at 37°C in LB broth for E. coli, and in tryptic soy broth for the other bacteria, and suspended to 5.0×10^5 colony-forming units (CFU)/mL in PBS (pH 7.4). To measure antimicrobial activity, 25 μL of bacteria were added into 96-well microtiter plates and diluted duck LEAP-2 peptides were dispensed to final concentrations of 50, 100, 150, and 200 μg/mL. After 3 h of incubation at 37°C, surviving bacteria were counted using a standard colony counting assay according to the following formula: cell survival % = (treatment CFU/negative control CFU)×100. To determine the killing kinetics, L. monocytogenes and S. aureus were cultured overnight in tryptic soy broth and suspended to 5.0×10^5 CFU/mL in PBS (pH 7.4). Bacteria were added into 96-well microtiter plates with a final peptide concentration of 200 μg/mL. The bacteria and peptide mixture was incubated for 0, 30, 60, 90, and 180 min at 37°C. Surviving bacteria were counted using a standard colony counting assay.

[2] = tested on: Listeria monocytogenes ATCC 19115; assay: Killing kinetics (colony counting); type: cell-based; settings: 200 μg/mL peptide, 37°C, PBS pH 7.4; sampled at 0, 30, 60, 90, 180 min
Description: as §1

[3] = tested on: E. coli ATCC 43888; assay: Antimicrobial activity assay (colony counting); type: cell-based, Escherichia coli; settings: 50 μg/mL peptide, 3 h at 37°C, PBS pH 7.4, colony counting
Description: (§2) The bacterial species used in this experiment included two gram-positive bacteria strains, Listeria monocytogenes (L. monocytogenes) ATCC 19115 and Staphylococcus aureus (S. aureus) ATCC 27664, and four gram-negative bacteria strains, E. coli ATCC 43888, Salmonella enterica serovar Enteritidis YHS 383, Salmonella enterica serovar Choleraesuis YHS 386, and Salmonella enterica serovar Typhimurium ATCC 43174.
as §1, with “The bacteria and peptide mixture was incubated for 0, 30, 60, 90, and 180 min at 37°C.” left out

[4] = tested on: E. coli; assay: Fluorescence microscopic analysis, LIVE/DEAD BacLight staining; type: cell-based, Escherichia coli; settings: 200 μg/mL peptide, 3 h at 37°C, SYTO9 / propidium iodide
Description: (§3) E. coli, S. aureus, and L. monocytogenes (5.0×10^5 CFU/mL) in PBS were incubated with a 200 μg/mL (final concentration) of the disulfide-LEAP-2 peptide for 3 h at 37°C. After incubation, the cells were washed with PBS and stained with LIVE/DEAD BacLight Bacterial Viability Kits (Invitrogen, USA) according to the manufacturer’s instructions. In brief, the bacteria were incubated for 15 min with SYTO9 green fluorescent […] and with propidium iodide in a dark room. The cells were then mounted onto glass slides and examined using EVOS FLoid Cell Imaging Station (Invitrogen, USA).

[5] = tested on: S. aureus; assay: as above; type: cell-based, Staphylococcus aureus; settings: 200 μg/mL peptide, 3 h at 37°C, SYTO9 / propidium iodide
Description: as §3

[6] = tested on: Listeria monocytogenes (L. monocytogenes) ATCC 19115; assay: Antimicrobial activity assay (colony counting); type: cell-based; settings: 50 μg/mL peptide, 3 h at 37°C, 5.0×10^5 CFU/mL in PBS pH 7.4, colony counting
Description: as §2, §1

[7] = tested on: Staphylococcus aureus (S. aureus) ATCC 27664; assay: Antimicrobial activity assay (colony counting); type: cell-based; settings: 50 μg/mL peptide, 3 h at 37°C, 5.0×10^5 CFU/mL in PBS pH 7.4, colony counting
Description: as §2, §1

[8] = tested on: Salmonella enterica serovar Typhimurium ATCC 43174; assay: Antimicrobial activity assay (colony counting); type: cell-based; settings: 200 μg/mL peptide, 3 h at 37°C, PBS pH 7.4, colony counting
Description: as §2, §1

[9] = tested on: L. monocytogenes; assay: Fluorescence microscopic analysis, LIVE/DEAD BacLight staining; type: cell-based, Listeria monocytogenes; settings: 200 μg/mL peptide, 3 h at 37°C, SYTO9 / propidium iodide
Description: as §3

[10] = tested on: Salmonella enterica serovar Enteritidis YHS 383; assay: Antimicrobial activity assay (colony counting); type: cell-based; settings: 3 h at 37°C, PBS pH 7.4, colony counting; concentration not given
Description: as §2, §1

CC[C@H](C)[C@@H]1NC(=O)[C@@H]2CSSC[C@@H](C(=O)N[C@@H](Cc3ccccc3)C(=O)N[C@@H](CC(C)C)C(=O)N[C@@H](CCCNC(=N)N)C(=O)N[C@@H](CO)C(=O)N[C@@H](C)C(=O)N[C@@H](CO)C(=O)N[C@@H](CCC(=O)O)C(=O)O)NC(=O)[C@H](CCCNC(=N)N)NC(=O)[C@H](CC(N)=O)NC(=O)[C@H](CCCCN)NC(=O)[C@H](CCCNC(=N)N)NC(=O)[C@H](CSSC[C@H](NC(=O)[C@H](CO)NC(=O)[C@H](C)NC(=O)CNC(=O)[C@@H](NC(=O)[C@@H]3CCCN3C(=O)[C@H](CCCNC(=N)N)NC(=O)[C@H](CC(C)C)NC(=O)[C@H](CO)NC(=O)[C@@H](NC(=O)CNC(=O)[C@H](CCCNC(=N)N)NC(=O)[C@H](Cc3c[nH]c4ccccc34)NC(=O)[C@H](Cc3ccccc3)NC(=O)[C@@H]3CCCN3C(=O)[C@@H](NC(=O)[C@@H](N)CCSC)[C@@H](C)O)C(C)C)[C@@H](C)CC)C(=O)N[C@@H](CCCNC(=N)N)C(=O)N[C@@H](CC(=O)O)C(=O)N[C@@H](CC(N)=O)C(=O)N[C@@H](CO)C(=O)N[C@@H](CCC(=O)O)C(=O)N2)NC(=O)[C@H](CC(C)C)NC(=O)[C@H](CCSC)NC(=O)[C@H]([C@@H](C)O)NC1=O [disulfide LEAP-2] (H-MTPFWRGVSLRPIGASCRDNSECITMLCRKNRCFLRSASE-OH; disulfide 17-28, 23-33; N-terminus and C-terminus assumed)
killing of S. aureus over time [1]: killed S. aureus gradually over time
time in which all L. monocytogenes were killed [2]: ≤ 30 min
E. coli killed [3]: more than 90%
live/dead staining of E. coli (red fluorescence = dead) [4]: most of the cells were dead
live/dead staining of S. aureus (red fluorescence = dead) [5]: most of the cells were dead
killing of L. monocytogenes [6]: killed most
killing of S. aureus [7]: killed most
killing effect / inhibition of cell proliferation, S. Typhimurium [8]: 90%
live/dead staining of L. monocytogenes (red fluorescence = dead) [9]: most of the cells were dead

CC[C@H](C)[C@H](NC(=O)[C@H](CS)NC(=O)[C@H](CCC(=O)O)NC(=O)[C@H](CO)NC(=O)[C@H](CC(N)=O)NC(=O)[C@H](CC(=O)O)NC(=O)[C@H](CCCNC(=N)N)NC(=O)[C@H](CS)NC(=O)[C@H](CO)NC(=O)[C@H](C)NC(=O)CNC(=O)[C@@H](NC(=O)[C@@H]1CCCN1C(=O)[C@H](CCCNC(=N)N)NC(=O)[C@H](CC(C)C)NC(=O)[C@H](CO)NC(=O)[C@@H](NC(=O)CNC(=O)[C@H](CCCNC(=N)N)NC(=O)[C@H](Cc1c[nH]c2ccccc12)NC(=O)[C@H](Cc1ccccc1)NC(=O)[C@@H]1CCCN1C(=O)[C@@H](NC(=O)[C@@H](N)CCSC)[C@@H](C)O)C(C)C)[C@@H](C)CC)C(=O)N[C@H](C(=O)N[C@@H](CCSC)C(=O)N[C@@H](CC(C)C)C(=O)N[C@@H](CS)C(=O)N[C@@H](CCCNC(=N)N)C(=O)N[C@@H](CCCCN)C(=O)N[C@@H](CC(N)=O)C(=O)N[C@@H](CCCNC(=N)N)C(=O)N[C@@H](CS)C(=O)N[C@@H](Cc1ccccc1)C(=O)N[C@@H](CC(C)C)C(=O)N[C@@H](CCCNC(=N)N)C(=O)N[C@@H](CO)C(=O)N[C@@H](C)C(=O)N[C@@H](CO)C(=O)N[C@@H](CCC(=O)O)C(=O)O)[C@@H](C)O [linear LEAP-2] (H-MTPFWRGVSLRPIGASCRDNSECITMLCRKNRCFLRSASE-OH; N-terminus and C-terminus assumed)
killing of S. aureus over time [1]: killed S. aureus gradually over time
time in which all L. monocytogenes were killed [2]: ≤ 30 min
S. Enteritidis inhibited [10]: not inhibited
